Patent US20240019418A1, “RECEPTORS FOR CYCLIC DINUCLEOTIDES AND METHODS FOR SCREENING AGONISTS OR INHIBITORS THEREOF” (GUANGZHOU WINKEY TECHNOLOGY CO., LTD., priority 2017, published 2024)

Molecular target: T1, subtype M of human STING (Homo sapiens, UniProt Q86WV6)
T1 construct: expressed in transfected cells
Experiment: type 1 interferon promoter luciferase reporter in HEK293T cell lines stably expressing subtype M of human STING
Type: cell-based
Set-up: dose or concentration left out as unconfirmed
Conditions: c-di-AMP final concentration in complete medium, 16 hour
Procedure: After two weeks, drug resistance strains occurred.
Incubate for 20 min at room temperature. […] After 24 hours, the supernatants were removed.

T1 sequence (Q86WV6 120-379): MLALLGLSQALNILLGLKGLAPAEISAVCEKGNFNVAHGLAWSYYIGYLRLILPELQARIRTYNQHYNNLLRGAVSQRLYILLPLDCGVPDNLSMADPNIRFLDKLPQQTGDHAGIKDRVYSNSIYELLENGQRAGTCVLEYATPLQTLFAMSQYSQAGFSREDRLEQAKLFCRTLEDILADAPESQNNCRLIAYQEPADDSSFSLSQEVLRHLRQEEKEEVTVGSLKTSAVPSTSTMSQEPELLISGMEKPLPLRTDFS

## Nc1ncnc2c1ncn2[C@@H]1O[C@@H]2COP(=O)(O)O[C@H]3[C@@H](O)[C@H](n4cnc5c(N)ncnc54)O[C@@H]3COP(=O)(O)O[C@H]2[C@H]1O [c-di-AMP]
  luciferase activity compared with control group in which only transfection was performed: significantly increased
